One series has as its system P. aeruginosa. Description: MIC against P. aeruginosa strains. Format: cell-based. The source says: (§1) The colors represent different species, the numbers in the columns refer to the number of individual strains inhibited, where black=S. aureus, grey=E. coli, blue=K. pneumoniae, white=P. aeruginosa. […] (2B) The MIC values for each strain (diamond symbols) split by species, where Hospital=red, C1=orange, blue=C1a, cyan=C2, green=C2a, purple=C2b (grey scale only). Filled symbols indicate strains with antimicrobial resistance. The box indicates the 25-75 percentiles, stars indicate geometric means, *=P<0.05, **=P<0.01 tested using Mann Whitney U Non-Parametric analysis. […] (2C) The antimicrobial breadths of the impurities relative to a hospital bottle. […] (2D) The MIC values for each strain split by species.
(§2) The antimicrobial activity of the main components of gentamicin were studied relative to a single hospital bottle (gentamicin mixture) from Stanford University Hospital.

For the next series, the system named is S. aureus. Format: cell-based. The note with it: for antimicrobial potency relative to hospital bottle: Mann Whitney U Test.
Excerpt: as §1, §2

The subject of series [1] is rat cochlear hair cells. The note with it: for EC50: read-out: EC50±SE, hair cell survival (ototoxicity).
Series [2] deals with S. aureus, E. coli, K. pneumoniae, P. aeruginosa strains. Description: Antimicrobial breadth and potency (MIC) across 40 bacterial strains. The series is classed as cell-based.
Excerpt: as §1, §2

For a further series, the system named is E. coli. Description: MIC against E. coli strains. The series is classed as cell-based. To be noted: Mann Whitney U Test. From the text:
(§3) […]. The colors represent different species, the numbers in the columns refer to the number of individual strains inhibited, where black=S. aureus, grey=E. coli, blue=K. pneumoniae, white=P. aeruginosa. The hospital bottle inhibits 35/40 strains tested, with the C-components inhibiting 31-35 strains. (2B) The MIC values for each strain (diamond symbols) split by species, where Hospital=red, C1=orange, blue=C1a, cyan=C2, green=C2a, purple=C2b (grey scale only). Filled symbols indicate strains with antimicrobial resistance. The box indicates the 25-75 percentiles, stars indicate geometric means, *=P<0.05, **=P<0.01 tested using Mann Whitney U Non-Parametric analysis. […] There are also some differences between individual components in S. aureus and P. aeruginosa. (2C) The antimicrobial breadths of the impurities relative to a hospital bottle. The hospital bottle inhibits 35/40 strains tested, with the impurities Gent B, Gent A, Gent X and G418 inhibiting 15-21 strains. One impurity, Sisomicin inhibited 35/40 strains. (2D) The MIC values for each strain split by species. […].

A further series has as its system K. pneumoniae. Description: MIC against K. pneumoniae strains. To be noted: Mann Whitney U Test. Format: cell-based.
Excerpt: as §3

In series [3] the test system is rat cochlear hair cells. Description: tissue or blood. The note with it: read-out: EC50±SE, hair cell survival (ototoxicity).
Where [4] appears, read: mid-apical region of the cochlea, n>5 per data point, logarithmic function best fit.

Several values for one entry are separate records, joined by “and”; a condition that tells them apart may be missing. Identical values can stand only once. Entries after “also recorded” stand apart in the source; their conditions may differ. Like-named read-outs stand apart in the source and are kept apart here.

Turning to gentamicin C1a, the entries for the “Geomean MIC” value in the series on P. aeruginosa and in the series on S. aureus were 0.71 µg/mL and 0.29 µg/mL, respectively. The “antimicrobial potency relative to C1 component” value with P. aeruginosa and with S. aureus was “more antimicrobial than the C1 component” each time. In addition, in the series with rat cochlear hair cells [1], the EC50 worked out at 816 ± 18 µM.

Turning to `CN[C@@H]1[C@@H](O)[C@@H](O[C@@H]2[C@@H](O)[C@H](O[C@H]3O[C@H]([C@@H](C)NC)CC[C@H]3N)[C@@H](N)C[C@H]2N)OC[C@]1(C)O` [C1, gentamicin C1], the “Geomean MIC” value was 1.52 µg/mL with P. aeruginosa (P. aeruginosa, n≥8 strains); 0.53 µg/mL and 0.54 µg/mL in the series with S. aureus (S. aureus, n=10 strains). The “antimicrobial potency relative to hospital bottle” value in the series on S. aureus (S. aureus) is “less potent than the hospital bottle; also recorded: less antimicrobial than the hospital bottle”. In the series on rat cochlear hair cells [1], the “ototoxicity relative to hospital bottle” value is recorded as “not significantly different from the hospital bottle”. In the series with rat cochlear hair cells [1] (setting [4]), the EC50 is 755 ± 60 µM. The “antimicrobial potency among the components” value in series [2] is listed as “lowest antimicrobial potency”.

Take `CN[C@@H]1[C@@H](O)[C@@H](O[C@@H]2[C@@H](O)[C@H](O[C@H]3O[C@H]([C@H](C)N)CC[C@H]3N)[C@@H](N)C[C@H]2N)OC[C@]1(C)O` [C2a, gentamicin C2a]: the “ototoxicity relative to hospital bottle” value in the series on rat cochlear hair cells [1] is recorded as “not significantly different from the hospital bottle”. Moreover, the concentration giving a half-maximal response (EC50) in the series on rat cochlear hair cells [1] (setting [4]) worked out at 614 ± 69 µM.

As to `CNC[C@@H]1CC[C@@H](N)[C@@H](O[C@H]2[C@H](O)[C@@H](O[C@H]3OC[C@](C)(O)[C@H](NC)[C@H]3O)[C@H](N)C[C@@H]2N)O1` [C2b, gentamicin C2b], the “ototoxicity relative to hospital bottle” value with rat cochlear hair cells [1] is given as “less ototoxic than the hospital bottle”. For the same compound, the concentration giving a half-maximal response (EC50) with rat cochlear hair cells [1] (setting [4]) came to 1200 ± 114 µM.

On to `CN[C@@H]1[C@@H](O)[C@@H](O[C@@H]2[C@@H](O)[C@H](O[C@H]3OC(CN)=CC[C@H]3N)[C@@H](N)C[C@H]2N)OC[C@]1(C)O` [Sisomicin], for which the “antimicrobial potency relative to hospital bottle” value in the series on P. aeruginosa (P. aeruginosa, Mann Whitney U Test) is “more potent than the hospital”; with E. coli, “equi-potent to the hospital”; in the series with S. aureus (S. aureus), “more potent than the hospital”; in the series with K. pneumoniae, “equi-potent to the hospital”. In addition, the “ototoxicity relative to hospital bottle” value in the series with rat cochlear hair cells [1] is “more ototoxic than the hospital”. Besides, the “number of strains inhibited (antimicrobial breadth)” value in series [2] (40 strains tested, breadth defined as MIC value ≤4μg/ml) is on record as 35/40. Besides, in the series on rat cochlear hair cells [3], the concentration giving a half-maximal response (EC50) came to 212 ± 7 µM.

`CN[C@@H]1[C@@H](O)[C@@H](O[C@@H]2[C@@H](O)[C@H](O[C@H]3O[C@H](CN)[C@@H](O)[C@H](O)[C@H]3O)[C@@H](N)C[C@H]2N)OC[C@]1(C)O` [Gent B]: the “antimicrobial potency relative to hospital bottle” value in series [2] (all species tested, P<0.05, n≥8 strains) is “significantly less potent than the hospital bottle”.

With `CN[C@@H]1[C@@H](O)[C@@H](O[C@@H]2[C@@H](O)[C@H](O[C@H]3O[C@H]([C@@H](C)O)[C@@H](O)[C@H](O)[C@H]3N)[C@@H](N)C[C@H]2N)OC[C@]1(C)O` [G418, geneticin, reference compound], the “ototoxicity relative to hospital bottle” value with rat cochlear hair cells [1] was “more ototoxic at lower doses than the hospital but requires a higher dose to kill all hair cells than the hospital”.

Consider `CN[C@@H]1[C@@H](O)[C@@H](O[C@@H]2[C@@H](O)[C@H](O[C@H]3O[C@H]([C@@H](C)N)CC[C@H]3N)[C@@H](N)C[C@H]2N)OC[C@]1(C)O` [C2, gentamicin C2], for which the “ototoxicity among the drug components” value in the series on rat cochlear hair cells [1] was “most ototoxic component”. Also, the EC50 in the series on rat cochlear hair cells [1] (setting [4]) is 402 ± 38 µM.

The values above are taken from patent US20220096509A1, “Reformulating Hospital Gentamicin to reduce the risk of hearing loss while maintaining antimicrobial activity” (priority 2019, published 2022).
